Here are results for 27 sequences from paper PMC9928118, “Funneling modulatory peptide design with generative models: Discovery and characterization of disruptors of calcineurin protein-protein interactions” (PLOS Computational Biology, 2023).

This experiment deals with GST-tagged Cn. The experiment in a line: PEPperPRINT peptide microarray binding assay with GST-tagged Cn. In short, it runs like this: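 Qualitative binding: peptides printed on a PEPperPRINT microarray were incubated overnight at 4 °C with 1 mg/ml GST-tagged Cn, then detected with Alexa-Fluor 647 anti-GST antibody. Log fluorescence was baseline-corrected, averaged over duplicate spots, Z-normalized and averaged across five repeats.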

Where [1] appears, read: max over the spots listed under Location on chip.
[2] abbreviates: mean over the spots listed under Location on chip.
Setting [3] is: GST-tagged Cn, max over the chip locations.
The mark [4] stands for this setting: GST-tagged Cn, mean over the chip locations.
The mark [5] stands for this setting: GST-tagged Cn, max over the spots on the chip (two locations).
Where [6] appears, read: GST-tagged Cn, mean over the spots on the chip (two locations).
Setting [7] is: GST-tagged Cn, max over the spots named in Location on chip.
The mark [8] stands for this setting: GST-tagged Cn, mean over the spots named in Location on chip.
Where [9] appears, read: GST-tagged Cn, max over the chip spots listed under Location on chip.
Setting [10] is: GST-tagged Cn, mean over the chip spots listed under Location on chip.
Where [11] appears, read: max over the chip locations listed for the peptide (two spots).
Where [12] appears, read: mean over the chip locations listed for the peptide (two spots).

Regarding RNPGTAPLTLKGHKKQ [SeqRBMlowT_6124], the “Chip Fluorescence (max)” value under setting [1] is reported as 2.7668. In addition, the “Chip Fluorescence (mean)” value under setting [2] amounted to 0.4787.
TFWTNPQFRVTVTEPD [SeqRBMlowT_4663]: under setting [3], the “Chip Fluorescence (max)” value was 0.1471. In addition, under setting [4], the “Chip Fluorescence (mean)” value was -0.7824.
As for TFWTNPQFVTLVKDGD [SeqRBM_8117], under setting [5], the “Chip Fluorescence (max)” value is 1.011. Besides, the “Chip Fluorescence (mean)” value under setting [6] is given as -0.2929.
For the sequence STSSLPTFSFSSPVSH [SeqRBMlowT_1620], the “Chip Fluorescence (max)” value under setting [1] is on record as 3.347. The “Chip Fluorescence (mean)” value under setting [2] is reported as 0.3099.
On to QPPQNPVATVSTAHHQ [SeqRBM_6519], for which the “Chip Fluorescence (max)” value under setting [7] is on record as 1.708. For the same sequence, under setting [8], the “Chip Fluorescence (mean)” value is -0.008148.
As to EDGKVPSIEIDVREYA [SeqRBM_7430], the “Chip Fluorescence (max)” value under setting [1] is listed as 2.944. For the same sequence, the “Chip Fluorescence (mean)” value under setting [2] is listed as 0.8153.
Consider VEYDKVWKVAQFVNKC [Seqrandom_9995], for which, under setting [9], the “Chip Fluorescence (max)” value was 0.5427. Under setting [10], the “Chip Fluorescence (mean)” value was -0.6454.
As for STSSLPTFSFSSPKPQ [SeqRBMlowT_8920], the “Chip Fluorescence (max)” value under setting [5] is listed as 1.216. Also, the “Chip Fluorescence (mean)” value under setting [6] is listed as -1.018.
Take NSSGAPQFQINVLMGE [SeqRBM_9653]: the “Chip Fluorescence (max)” value under setting [3] is listed as -0.2717. Besides, the “Chip Fluorescence (mean)” value under setting [4] is on record as -1.157.
As to QSNSTPTITITPPSDA [SeqRBM_9156], the “Chip Fluorescence (max)” value under setting [11] worked out at 7.93. Moreover, the “Chip Fluorescence (mean)” value under setting [12] is on record as 2.436.
On to SYLPIIQVRMTDTGEY [SeqRBM_6285], for which the “Chip Fluorescence (max)” value under setting [5] turned out to be 1.118. Also, the “Chip Fluorescence (mean)” value under setting [6] is recorded as 0.3431.
On to ADEAIPKIVIHPPEEP [SeqRBMlowT_1972], for which, under setting [1], the “Chip Fluorescence (max)” value is recorded as 3.233. For the same sequence, the “Chip Fluorescence (mean)” value under setting [2] was -0.1428.
In the case of PSEDQPGIVVHVCEEG [SeqRBMlowT_361], the “Chip Fluorescence (max)” value under setting [11] stood at 3.843. In addition, the “Chip Fluorescence (mean)” value under setting [12] turned out to be 0.9779.
In the same order, the values of VDIATNDLISELCNLC [Seqrandom_9952] are 4.084 and 0.2161.
For the sequence TFWTNPQYRLKIPDPD [SeqRBMlowT_280], the “Chip Fluorescence (max)” value under setting [1] was found to be 2.677. Further, the “Chip Fluorescence (mean)” value under setting [2] is 0.4774.
In the case of LCWFLDYRVVLPFFAY [Seqshuffled_7970], the “Chip Fluorescence (max)” value under setting [11] is on record as 4.66. The “Chip Fluorescence (mean)” value under setting [12] is 1.641.
PAGTGVGIVITVTEAE [SeqRBMlowT_157]: the “Chip Fluorescence (max)” value under setting [5] was 1.221. Moreover, the “Chip Fluorescence (mean)” value under setting [6] was -0.03937.
For the sequence DSHTVDPIPINPHSAV [SeqRBM_5538], the “Chip Fluorescence (max)” value under setting [9] amounted to 0.9715. Under setting [10], the “Chip Fluorescence (mean)” value is reported as -0.655.
For REPGVPPLELKGHLSL [SeqRBM_7171], under setting [7], the “Chip Fluorescence (max)” value is recorded as 1.816. Further, the “Chip Fluorescence (mean)” value under setting [8] was 0.8874.
Regarding RAYINPHMFFKFDGHK [SeqRBM_1639], under setting [9], the “Chip Fluorescence (max)” value amounted to 0.9031. Further, the “Chip Fluorescence (mean)” value under setting [10] is listed as 0.1441.
Consider TFWTNPQFRITLEDPD [SeqRBMlowT_31], for which the “Chip Fluorescence (max)” value under setting [1] worked out at 2.946. Under setting [2], the “Chip Fluorescence (mean)” value is recorded as 1.658.
For ADEANPRITITPAELP [SeqRBMlowT_3131], the “Chip Fluorescence (max)” value under setting [11] amounted to 16.2722. The “Chip Fluorescence (mean)” value under setting [12] came out at 1.499.
On to STSSLPTFSFSSPPST [SeqRBMlowT_3479], for which the “Chip Fluorescence (max)” value under setting [3] is recorded as -1.235. Also, under setting [4], the “Chip Fluorescence (mean)” value is -1.867.
Regarding KKMSPPCINIDPAPTN [SeqRBMlowT_1811], the “Chip Fluorescence (max)” value under setting [5] amounted to 0.9886. In addition, under setting [6], the “Chip Fluorescence (mean)” value is listed as -0.8988.
On to RTYINPFMQFTDGGRF [SeqRBMlowT_552], for which, under setting [1], the “Chip Fluorescence (max)” value turned out to be 2.5867. Moreover, the “Chip Fluorescence (mean)” value under setting [2] came to 0.5553.
Turning to RNPGQALLTLRGHKAS [SeqRBMlowT_7787], the “Chip Fluorescence (max)” value under setting [9] was found to be 0.3829. Further, the “Chip Fluorescence (mean)” value under setting [10] is reported as -0.6837.
Regarding “RQPGQALLELKGHAGA [SeqYPL247C_Erysiphe_pulchra]”, under setting [11], the “Chip Fluorescence (max)” value is reported as 4.952. Also, the “Chip Fluorescence (mean)” value under setting [12] amounted to 0.4575.
